One block for each molecule: values may come before it.
What was measured:
[1] = molecular target: T1, Amine oxidase [flavin-containing] B (Homo sapiens, UniProt P27338); experiment: Reversible inhibition of human recombinant MAOB assessed as residual enzyme activity at 5 uM pre-incubated with enzyme for 30 mins followed by dialysis with pH 7.2 sodium phosphate buffer for 6 hrs followed by 0.06 mM benzylamine substrate addition; settings: pH 7.2, 6 h
T1 sequence (P27338 whole entry): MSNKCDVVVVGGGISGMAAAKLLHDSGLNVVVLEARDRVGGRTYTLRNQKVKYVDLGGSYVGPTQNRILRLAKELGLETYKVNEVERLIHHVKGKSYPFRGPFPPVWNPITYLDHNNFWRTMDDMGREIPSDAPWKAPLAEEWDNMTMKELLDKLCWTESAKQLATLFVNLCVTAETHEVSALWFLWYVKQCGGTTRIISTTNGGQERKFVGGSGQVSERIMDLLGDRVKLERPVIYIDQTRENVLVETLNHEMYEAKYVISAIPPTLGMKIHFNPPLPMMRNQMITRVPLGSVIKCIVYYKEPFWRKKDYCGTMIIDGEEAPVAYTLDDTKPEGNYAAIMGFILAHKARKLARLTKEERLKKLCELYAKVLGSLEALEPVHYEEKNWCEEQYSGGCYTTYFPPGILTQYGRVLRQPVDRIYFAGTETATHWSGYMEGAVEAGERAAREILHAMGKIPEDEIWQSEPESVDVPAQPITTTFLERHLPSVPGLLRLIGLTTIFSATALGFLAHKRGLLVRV

[2] = molecular target: T2, Amine oxidase [flavin-containing] A (Homo sapiens, UniProt P21397); experiment: Reversible inhibition of human recombinant MAOA assessed as residual enzyme activity at 0.5 uM pre-incubated with enzyme for 30 mins followed by dialysis with pH 7.2 sodium phosphate buffer for 6 hrs followed by 0.06 mM kynuramine substrate addition; settings: read-out: INH
T2 sequence (P21397 whole entry): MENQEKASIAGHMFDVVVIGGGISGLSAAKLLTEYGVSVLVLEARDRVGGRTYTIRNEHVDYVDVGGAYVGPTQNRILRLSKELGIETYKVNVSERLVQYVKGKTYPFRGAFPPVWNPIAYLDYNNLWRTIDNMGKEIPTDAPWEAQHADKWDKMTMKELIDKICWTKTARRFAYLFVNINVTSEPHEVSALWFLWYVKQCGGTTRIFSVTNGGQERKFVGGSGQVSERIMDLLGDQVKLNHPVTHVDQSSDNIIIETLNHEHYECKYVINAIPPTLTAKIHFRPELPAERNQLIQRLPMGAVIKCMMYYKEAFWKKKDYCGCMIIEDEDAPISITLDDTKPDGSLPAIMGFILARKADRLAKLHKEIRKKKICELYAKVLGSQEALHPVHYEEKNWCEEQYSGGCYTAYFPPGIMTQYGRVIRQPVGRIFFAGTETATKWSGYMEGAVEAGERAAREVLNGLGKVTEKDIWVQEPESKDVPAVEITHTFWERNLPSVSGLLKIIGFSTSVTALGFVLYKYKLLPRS

[3] = molecular target: T2, Amine oxidase [flavin-containing] A; experiment: Inhibition of human recombinant MAOA using kynuramine as substrate preincubated for 30 mins followed by substrate addition
[4] = molecular target: T2, Amine oxidase [flavin-containing] A; experiment: Time dependent inhibition of human recombinant MAOA using kynuramine as substrate preincubated for up to 30 mins followed by substrate addition
[5] = molecular target: T1, Amine oxidase [flavin-containing] B; experiment: Inhibition of human recombinant MAOB assessed as residual enzyme activity at 5 uM pre-incubated for 30 mins followed by 0.06 mM benzylamine substrate addition
[6] = molecular target: T2, Amine oxidase [flavin-containing] A; experiment: Competitive inhibition of human recombinant MAOA using 0.006 to […] kynuramine as substrate preincubated for 30 mins followed by substrate addition by Lineweaver-Burk plot
[7] = molecular target: T2, Amine oxidase [flavin-containing] A; experiment: Inhibition of human recombinant MAOA assessed as residual enzyme activity at 0.5 uM pre-incubated for 30 mins followed by 0.06 mM kynuramine substrate addition; settings: read-out: INH
[8] = molecular target: T2, Amine oxidase [flavin-containing] A; experiment: Inhibition of human recombinant MAOA assessed as residual enzyme activity at 0.01 uM pre-incubated for 30 mins followed by 0.06 mM kynuramine substrate addition; settings: read-out: Activity
[9] = molecular target: T2, Amine oxidase [flavin-containing] A; experiment: Irreversible inhibition of human recombinant MAOA assessed as residual enzyme activity at 0.01 uM pre-incubated with enzyme for 30 mins followed by dialysis with pH 7.2 sodium phosphate buffer for 6 hrs followed by 0.06 mM kynuramine substrate addition; settings: read-out: Activity
[10] = molecular target: T1, Amine oxidase [flavin-containing] B; experiment: Inhibition of human recombinant MAOB assessed as residual enzyme activity at 2 time IC50 pre-incubated for 30 mins followed by 0.06 mM benzylamine substrate addition
[11] = molecular target: T1, Amine oxidase [flavin-containing] B; experiment: Reversible inhibition of human recombinant MAOB assessed as residual enzyme activity at 2 times IC50 pre-incubated with enzyme for 30 mins followed by dialysis with pH 7.2 sodium phosphate buffer for 6 hrs followed by 0.06 mM benzylamine substrate addition; settings: pH 7.2, 6 h
[12] = molecular target: T1, Amine oxidase [flavin-containing] B; experiment: Inhibition of human recombinant MAOB at 80 uM using benzylamine as substrate preincubated for 30 mins followed by substrate addition
Homo sapiens = organism: Homo sapiens; experiment: Selectivity index, ratio of IC50 for human recombinant MAOB to IC50 for human recombinant MAOA
[13] = molecular target: T1, Amine oxidase [flavin-containing] B; experiment: Inhibition of human recombinant MAOB using benzylamine as substrate preincubated for 30 mins followed by substrate addition
[14] = molecular target: T2, Amine oxidase [flavin-containing] A; experiment: Reversible inhibition of human recombinant MAOA assessed as residual enzyme activity at 2 uM pre-incubated with enzyme for 30 mins followed by dialysis with pH 7.2 sodium phosphate buffer for 6 hrs followed by 0.06 mM kynuramine substrate addition; settings: read-out: Activity
[15] = molecular target: T2, Amine oxidase [flavin-containing] A; experiment: Inhibition of human recombinant MAOA assessed as residual enzyme activity at 2 uM pre-incubated for 30 mins followed by 0.06 mM kynuramine substrate addition; settings: read-out: Activity

Activity [1]: 28%
activity at 0.5 µM [2]: 83.7%
IC50 [3]: 260 nM
TDI [4]: Not Active
Activity [5]: 87.5%
Ki [6]: 100 nM
activity at 0.5 µM [7]: 29.8%
SMILES: O=C1/C(=C/c2ccc(O)cc2)Oc2cc(O)ccc21

SMILES: COc1cc(O)c2c(=O)oc3cc(O)cc(C)c3c2c1
IC50 [3]: 1710 nM

IC50 [3]: 190 nM
SMILES: COc1ccc(-c2cc(=O)c3c(O)cc(O)cc3o2)cc1 [ACACETIN]

SMILES: O=c1cc(-c2ccc(O)cc2)oc2cc(O)cc(O)c12 [APIGENIN]
IC50 [3]: 1550 nM

SMILES: C#CCN(C)CCCOc1ccc(Cl)cc1Cl [CLORGILINE]
activity at 0.01 µM [8]: 18.3%
activity at 0.01 µM [9]: 17.3%

IC50 [3]: 1760 nM
SMILES: CC(C)=CC(=O)O[C@H]1Cc2cc3ccc(=O)oc3cc2OC1(C)C [DECURSIN]

SMILES: NCCNC(=O)c1ccc(Cl)cn1 [LAZABEMIDE]
Activity [10]: 72.9%
Activity [11]: 35%

IC50 [3]: 4160 nM
TDI [4]: Not Active
inhibition at 80 µM [12]: 20.8%
Ratio IC50 (Homo sapiens): > 19.2
IC50 [13]: > 80 µM
SMILES: O=C1/C(=C/c2ccc(O)c(O)c2)Oc2cc(O)ccc21 [SULFURETIN]

SMILES: Cc1cccc(N2CC(CO)OC2=O)c1 (configuration not stated) [TOLOXATONE]
activity at 2 µM [14]: 30.7%
activity at 2 µM [15]: 75.4%
